Experimental data: patent publication EP1212309B1, “CASPASE INHIBITOR” (LG Chem Investment, Ltd., priority 1999, dated 2001)
Values joined by “and” are separate entries in the source; they are usually repeats but may differ in a detail not shown here. Equal entries are not always repeated. Where two headings read alike, the source gives them in different places.

How the values were obtained:
Jurkat T cell = assay: MTT assay of cell death induced by Anti-FAS antibody CH11; assay type: cell-based; conditions: Jurkat T cell treated with Anti-FAS antibody CH11, MTT, read-out: ED50 FAS Induced cell death
WI38 cells = assay: Protection from IFNγ and anti-Fas antibody-induced apoptosis (XTT); assay type: cell-based, human; conditions: 100% when Fas antibody was not treated; for viability ratio: WI38 cells
Procedure: WI38 cells (human embryonal lung fibroblast) were grown in a medium containing DMEM-10% FBS within 10cm diameter dishes until reaching at confluency. The cells were seeded into a 24-well plate at day 1 and incubated overnight while the volume of medium was maintained to 400µℓ. […] At day 3, each 100 µℓ of test compound was added to the cells after diluting the 10mM stock compound in DMSO to final concentrations of 50, 10, 2, and 0.4 µ M, respectively. The cells were incubated for 2 hrs in order for allowing the compound to enter into the cells and then treated with 40ng/well of anti-Fas antibody(apoptosis was induced 2 hrs after antibody was treated and the incubation was continued overnight). The control was not treated with Fas antibody. […] After coloring, 100-200µℓ of the supernatant was transferred to a 96-well plate and the absorbance at 490 nm was read with ELISA plate reader. For the blank, XTT solution was added to the well containing the medium only. Plotting was determined by comparing with the control group (100% when Fas antibody was not treated).

caspase-1 = biological target: T1, caspase-1 (Homo sapiens, UniProt P29466); assay: Screening on caspases inhibiting activity (recombinant enzyme, fluorogenic AMC substrate); assay type: biochemical; conditions: for Ki: Reversible Inhibitor
T1 construct: made in house
T1 sequence (P29466 120-297 limits assumed): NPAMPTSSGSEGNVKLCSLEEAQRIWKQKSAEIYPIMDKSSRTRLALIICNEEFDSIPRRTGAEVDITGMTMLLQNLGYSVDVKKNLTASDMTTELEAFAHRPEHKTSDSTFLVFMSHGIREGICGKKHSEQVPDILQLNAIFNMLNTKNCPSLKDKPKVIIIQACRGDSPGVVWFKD
T1 sequence (P29466 317-404 limits assumed): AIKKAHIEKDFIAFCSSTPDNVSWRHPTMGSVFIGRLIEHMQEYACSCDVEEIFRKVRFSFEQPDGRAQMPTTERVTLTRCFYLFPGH
Procedure: (§1) In the present experiment, recombinant caspases were purified from a transformed bacterium after human caspase genes were cloned into the expression vector pET, and then used in the experiment (Thornberry, N.A. et .al. Nature, 1992, 356, 768. Thombeny, N.A. Methods in Enzymology, 1994, 615.).
(§2) Enzymatic activity was measured by a known procedure (Walker N.P.C. et al., Cell 1994, 78, 343). Briefly, 10 ng of recombinant protein was mixed with 50 mM Tris(pH 7.0), 1mM DTT, 0.5 mM EDTA, 10% Glycerol buffer containing 1∼100 µM of enzyme substrate, Ac-YVAD-AMC or Ac-DEVD-AMC and then the changes by isolated AMC at 37°C were recorded. The inhibitory activity for caspases was calculated from the early enzyme reaction rate by measuring the changes with fluorescence excited at […] and emitted at 460 nm (Range; Ki<100nM).

caspase-3 = biological target: T2, caspase-3 (Homo sapiens, UniProt P42574); assay: as above; assay type: biochemical; conditions: Irreversible Inhibitors
T2 construct: made in house
T2 sequence (P42574 29-175 limits assumed): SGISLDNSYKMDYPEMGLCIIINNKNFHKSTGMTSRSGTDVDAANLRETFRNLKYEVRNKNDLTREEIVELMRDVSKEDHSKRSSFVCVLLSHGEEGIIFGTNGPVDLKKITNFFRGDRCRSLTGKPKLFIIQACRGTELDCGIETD
T2 sequence (P42574 176-277 limits assumed): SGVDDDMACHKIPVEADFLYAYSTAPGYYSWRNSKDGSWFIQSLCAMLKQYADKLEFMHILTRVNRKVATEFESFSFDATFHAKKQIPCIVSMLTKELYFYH
Procedure: as §1, §2

## CC1(C(=O)N[C@@H](CC(=O)O)C(=O)COc2ccccc2)CC([C@H](CCC(=O)O)NC(=O)CCC(=O)O)=NO1 (mixture of isomers) [Compound 46, (3S)-3-{3-[(1S)-1-(succinoylamino)-3-carboxy-propyl]-5-methyl-4,5-dihydro-isoxazole-5-carbonylamino}-4-keto-5-phenoxy-pentanoic acid]
Jurkat T cell; Homo sapiens
  EC50: 1 to 10 µM

## CC(C)[C@H](NC(=O)CCC(=O)O)C1=NOC(C)(C(=O)N[C@@H](CC(=O)O)C(=O)COc2ccccc2)C1 (mixture of isomers) [Compound 47, (3S)-3-{3-[2-methyl-(1S)-1-(succinoylamino)-propyl]-5-methyl-4,5-dihydro-isoxazole-5-carbonylamino}-4-keto-5-phenoxy-pentanoic acid]
Jurkat T cell; Homo sapiens
  EC50: 1 to 10 µM

## CC(C)[C@H](NC(=O)CCC(=O)O)C1=NOC(C)(C(=O)N[C@@H](CC(=O)O)C(=O)COc2ccc3ccccc3c2)C1 (single isomer, unassigned) [Compound 81]
Jurkat T cell; Homo sapiens
  EC50: 1 to 10 µM

## CC(=O)N[C@@H](CC(=O)O)C(=O)N[C@@H](CCC(=O)O)C(=O)N[C@H](C(=O)N[C@H](C=O)CC(=O)O)C(C)C [Ac-DEVD-CHO, reference compound]
WI38 cells; Conc. 0.4 µM
  viability ratio: 12.16%
WI38 cells; Conc. 2 µM
  viability ratio: 14.75%
WI38 cells; Conc. 10 µM
  viability ratio: 19.16%
WI38 cells; Conc. 50 µM, 50 µM
  viability ratio: 35.1% and 35.14%

## CC(C)[C@H](NC(=O)c1ccc2ccccc2c1)C1=NOC(COc2ccccc2)(C(=O)N[C@@H](CC(=O)O)C(=O)COc2ccc3ccccc3c2)C1 (stereo partly drawn) [Compound 25mp, (3S)-3-{3-[(1S)-1-(naphthalene-2-carbonylamino)-2-methyl-propyl]-5-phenoxymethyl-4,5-dihydro-isoxazole-5-carbonylamino}-4-keto-5-(2-naphthyloxy)-pent anoic acid]
caspase-1
  Ki: 0.0721 nM
Jurkat T cell; Homo sapiens
  EC50: 1 to 10 µM

## CC(C)[C@H](NC(=O)c1ccc2ccccc2c1)C1=NOC(Cc2ccccc2)(C(=O)N[C@@H](CC(=O)O)C(=O)COC(=O)c2c(Cl)cccc2Cl)C1 (stereo partly drawn) [Compound 28, (3S)-3-{3-{(1S)-1-(naphthalene-2-carbonylamino)-2-methyl-propyl]-5-phenylmethyl-4,5-dihydro-isoxazole-5-carbonylamino}-4-keto-5-(2,6-dichlorobenzoyloxy)-pentanoic acid]
WI38 cells; Homo sapiens, WI-38, WI38 cells, Conc. 0.4 µM, read-out: viability ratio
  viability at 0.4 µM: 14.7%
WI38 cells; Homo sapiens, WI-38, WI38 cells, Conc. 2 µM, read-out: viability ratio
  viability at 2 µM: 17.3%
WI38 cells; Homo sapiens, WI-38, WI38 cells, Conc. 10 µM, read-out: viability ratio
  viability at 10 µM: 82.4%
WI38 cells; Homo sapiens, WI-38, WI38 cells, Conc. 50 µM, read-out: viability ratio
  viability at 50 µM: 90%
WI38 cells; Conc. 50 µM, listed as Comp 28, 50 µM
  viability ratio: 90.39%

## CC(C)[C@H](NC(=O)c1ccc2ccccc2c1)C1=NOC(C(=O)N[C@@H](CC(=O)O)C(=O)COc2ccc3ccccc3c2)C1 (stereo partly drawn) [Compound 29, (3S)-3-{3-[(1S)-1-(naphthalene-2-carbonylamino)-2-methyl-propyl]-4,5-dihydro-isoxazole-5-carbonylamino}-4-keto-5-(2-naphthyloxy)-pentanoic acid]
Jurkat T cell; Homo sapiens
  EC50: 1 to 10 µM

## CC(C)[C@H](NC(=O)c1ccc2ccccc2c1)C1=NOC(C(=O)N[C@@H](CC(=O)O)C(=O)COc2ccccc2)C1 (stereo partly drawn) [Compound 30, (3S)-3-{3-[2-methyl-(1S)-1-(2-naphthalenecarbonylamino)-propyl]-4,5-dihydro-isoxazole-5-carbonylamino}-4-keto-5-phenoxy-pentanoic acid]
Jurkat T cell; Homo sapiens
  EC50: 1 to 10 µM

## CC(C)[C@H](NC(=O)c1ccc2ccccc2n1)C1=NOC(Cc2ccccc2)(C(=O)N[C@@H](CC(=O)O)C(=O)COc2ccccc2)C1 (stereo partly drawn) [Compound 43mp, (3S)-3-{3-[2-methyl-(1S)-1-(quinoline-2-yl-carbonylamino)-propyl]-5-phenylmethyl-4,5-dihydro-isoxazole-5-carbonylamino}-4-keto-5-phenoxy-pentanoic acid]
caspase-1
  Ki: 4 nM
Jurkat T cell; Homo sapiens
  EC50: 1 to 10 µM

## CC(C)[C@H](NC(=O)c1cccc2ccccc12)C1=NOC(Cc2ccccc2)(C(=O)N[C@@H](CC(=O)O)C(=O)CN2CCCCC2)C1 (stereo partly drawn) [Compound 48, (3S)-3-{3-[2-methyl-(1S)-1-(1-naphtalenylcarbonylamino)-propyl]-5-phenylmethyl-4,5-dihydro-isoxazole-5-carbonylamino}-4-keto-5-(1-piperidinyl)-pentanoic acid]
Jurkat T cell; Homo sapiens
  EC50: 1 to 10 µM

## CC(C)[C@H](NC(=O)c1cc2ccccc2[nH]1)C1=NOC(Cc2ccccc2)(C(=O)N[C@@H](CC(=O)O)C(=O)COC(=O)c2c(Cl)cccc2Cl)C1 (stereo partly drawn) [Compound 64, (3S)-3-{3-[2-methyl-(1S)-1-(indole-2-carbonylamino)-propyl]-5-phenylmethyl - 4,5-dihydro-isoxazole-5-carbonylamino}-4-keto-5-(2,6-dichlorobenzoyloxy)-pe ntanoic acid]
Jurkat T cell; Homo sapiens
  EC50: 1 to 10 µM

## CC(C)[C@H](NC(=O)c1c[nH]c2ccccc12)C1=NOC(Cc2ccccc2)(C(=O)N[C@@H](CC(=O)O)C(=O)COC(=O)c2c(Cl)cccc2Cl)C1 (stereo partly drawn) [Compound 66, (3S)-3-{3-[2-methyl-(1S)-1-(indole-3-carbonylamino)-propyl]-5-phenylmethyl - 4,5-dihydro-isoxazole-5-carbonylamino}-4-keto-5-(2,6-dichlorobenzoyloxy)-pe ntanoic acid]
Jurkat T cell; Homo sapiens
  EC50: 1 to 10 µM

## CC(C)[C@H](NC(=O)c1cccc2ccccc12)C1=NOC(C)(C(=O)N[C@@H](CC(=O)O)C(=O)COC(=O)c2c(Cl)cccc2Cl)C1 (stereo partly drawn) [Compound 68, (3S)-3-{3-[2-methyl-(1S)-1-(naphthalene-1-carbonylamino)-propyl]-5-methyl-4,5-dihydro-isoxazole-5-carbonylamino}-4-keto-5-(2,6-dichlorobenzoyloxy)-pen tanoic acid]
Jurkat T cell; Homo sapiens
  EC50: 1 to 10 µM

## CC(C)[C@H](NC(=O)CCC(=O)O)C1=NOC(C)(C(=O)N[C@@H](CC(=O)O)C(=O)COC(=O)c2c(Cl)cccc2Cl)C1 (stereo partly drawn) [Compound 74, (3S)-3-{3-[2-methyl-(1S)-1-(succinoylamino)-propyl]-5-methyl-4,5-dihydro-isoxazole-5-carbonylamino}-4-keto-5-(2,6-dichlorobenzoyloxy)-pentanoic acid]
caspase-1; Irreversible Inhibitors
  Kobs/[I] for caspase-1: 14500 M⁻¹ s⁻¹
caspase-3
  Kobs/[I] for caspase-3: 40900 M⁻¹ s⁻¹

## CC(C)[C@H](NC(=O)CCC(=O)O)C1=NOC(C)(C(=O)N[C@@H](CC(=O)O)C(=O)CN2CCCCC2)C1 (stereo partly drawn) [Compound 77, (3S)-3-{3-[2-methyl-(1S)-1-(succinoylamino)-propyl]-5-methyl-4,5-dihydro-isoxazole-5-carbonylamino}-4-keto-5-(N-piperidine)-pentanoic acid]
caspase-1
  Ki: 28900 nM
Jurkat T cell; Homo sapiens
  EC50: 1 to 10 µM

## CCCCCC1(C(=O)N[C@@H](CC(=O)O)C(=O)COC(=O)c2c(Cl)cccc2Cl)CC([C@@H](NC(=O)CCC(=O)O)C(C)C)=NO1 (stereo partly drawn) [Compound 90, (3S)-3-{3-[2-methyl-(1S)-1-(succinoylamino)-propyl]-5-n-pentyl-4,5-dihydro-isoxazole-5-carbonylamino}-4-keto-5-(2,6-dichlorobenzoyloxy)-pentanoic acid]
caspase-3
  Kobs/[I] for caspase-3: 80100 M⁻¹ s⁻¹

## CC(C)[C@H](NC(=O)[C@H](CCC(=O)O)NC(=O)[C@H](CC(=O)O)NC(=O)OCc1ccccc1)C(=O)N[C@@H](CC(=O)O)C(=O)CCl [z-DEVD-cmk, reference compound]
WI38 cells; Conc. 0.4 µM
  viability ratio: 15.13%
WI38 cells; Conc. 2 µM
  viability ratio: 16.27%
WI38 cells; Conc. 10 µM
  viability ratio: 27.38%
WI38 cells; Conc. 50 µM, 50 µM
  viability ratio: 47.3% and 47.32%

## (3S)-3-{3-[(1S)-1-(quinoline-2-yl-carbonylamino)-2-methyl-propyl]-5-phenox ymethyl-4,5-dihydro-isoxazole-5-carbonylamino}-4-keto-pentanoic acid [Compound 22mp]
caspase-1
  Ki: 0.125 nM
Jurkat T cell
  EC50: 1 to 10 µM
